Data reported in US6472348B1, “Pyridone derivatives and herbicides” (Kumiai Chemical Industry Co., Ltd., priority 1996, dated 2002).

Experiments:
Assay type in all cases: in vivo
wheat (Tr) = assay: Test Example 5: crop plant selectivity by upland field soil treatment (wheat), phytotoxicity; design: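 grade of crop injury; 5 = at least 90%; 4 = 70 to 90%; 3 = 50 to 70%; 2 = 30 to 50%; 1 = 10 to 30%; 0 = under 10%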; settings: dose 1.6 g ai/10a, 21st day after application
Outline: (§1)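 Wheat and weeds were sown in sand-filled pots and covered with soil, then treated by soil application. Plants grew in a greenhouse, and herbicidal effect and crop phytotoxicity were scored on a rating scale 21 days after application.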

barnyardgrass (Ec) [1] = assay: Test Example 3: herbicidal effects by upland field foliage treatment; design: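 grade of growth control; 5 = at least 90%; 4 = 70 to 90%; 3 = 50 to 70%; 2 = 30 to 50%; 1 = 10 to 30%; 0 = under 10%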; settings: 100 g active ingredient per 10 ares, evaluated 14th day after treatment
Outline: (§2)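 Sowing into sand pots with a 120 cm^2 surface, followed by soil covering and 2 weeks of greenhouse growth, preceded the leaf treatment. Scoring of weed control took place on the 14th day afterwards according to set evaluation criteria.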

rice flatsedge (Ci) [2] = assay: as above; design: scale not given here; settings: 100 g active ingredient per 10 ares, evaluated 14th day after treatment
Outline: as §2

pale smartweed (Po) [3] = assay: as above; design: scale not given here; settings: 100 g active ingredient per 10 ares, evaluated 14th day after treatment
Outline: as §2

slender amaranth (Am) [4] = assay: as above; design: scale not given here; settings: 100 g active ingredient per 10 ares, evaluated 14th day after treatment
Outline: as §2

[5] = tested on: common lambsquarters (Ch); assay: as above; design: scale not given here; settings: 100 g active ingredient per 10 ares, evaluated 14th day after treatment
Outline: as §2

Diaitaria ciliaris (Di) [6] = assay: as above; design: scale not given here; settings: 100 g active ingredient per 10 ares, evaluated 14th day after treatment
Outline: as §2

Digitaria ciliaris (Di) = assay: Test Example 2: herbicidal effects by upland field soil treatment; settings: 100 g of the active ingredient per 10 ares, evaluated on the 21st day after application;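 also: grade of growth control; 5 = at least 90%; 4 = 70 to 90%; 3 = 50 to 70%; 2 = 30 to 50%; 1 = 10 to 30%; 0 = under 10%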
Description: (§3) (Test on Herbicidal Effects by Upland Field Soil Treatment)

barnyardgrass (Ec) [7] = assay: as above; settings: 100 g of the active ingredient per 10 ares, evaluated on the 21st day after application
Description: as §3

rice flatsedge (Ci) [8] = assay: as above; settings: 100 g of the active ingredient per 10 ares, evaluated on the 21st day after application
Description: as §3

pale smartweed (Po) [9] = assay: as above; settings: 100 g of the active ingredient per 10 ares, evaluated on the 21st day after application
Description: as §3

slender amaranth (Am) [10] = assay: as above; settings: 100 g of the active ingredient per 10 ares, evaluated on the 21st day after application
Description: as §3

[11] = tested on: common lambsquarters (Ch); assay: as above; settings: 100 g of the active ingredient per 10 ares, evaluated on the 21st day after application
Description: as §3

green foxtail (Se) = assay: Test Example 5: crop plant selectivity by upland field soil treatment (wheat), herbicidal effects; design: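 grade of growth control; 5 = at least 90%; 4 = 70 to 90%; 3 = 50 to 70%; 2 = 30 to 50%; 1 = 10 to 30%; 0 = under 10%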; settings: dose 1.6 g ai/10a, 21st day after application
Outline: as §1

China jute (Ab) = assay: as above; design: scale not given here; settings: dose 1.6 g ai/10a, 21st day after application
Outline: as §1

pale smartweed (Po) [12] = assay: as above; design: scale not given here; settings: dose 1.6 g ai/10a, 21st day after application
Outline: as §1

slender amaranth (Am) [13] = assay: as above; design: scale not given here; settings: dose 1.6 g ai/10a, 21st day after application
Outline: as §1

[14] = tested on: common lambsquarters (Ch); assay: as above; design: scale not given here; settings: dose 1.6 g ai/10a, 21st day after application
Outline: as §1

Diaitaria ciliaris (Di) [15] = assay: as above; settings: dose 1.6 g ai/10a, 21st day after application
Procedure: (Test on Crop Plant Selectivity by Upland Field Soil Treatment)
In a plastic pot (surface area: 600 cm^2) filled with sand, wheat (Tr), Diaitaria ciliaris (Di), green foxtail (Se), pale smartweed (Po), slender amaranth (Am), common lambsquarters (Ch) and China jute (Ab) were sown and covered with soil. […] The plants were then cultured in a green house, and the evaluation of the herbicidal effects and phytotoxicity was conducted on the 21st day after the application in accordance with the standards as identified in Table 47. Symbol—represents “not tested”.

barnyardgrass (Ec) [16] = assay: Test Example 1: herbicidal effects by paddy field soil treatment; settings: 100 g of the active ingredient per 10 ares, 21st day after the application, index 0-5 of Table 47;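 also: grade of growth control; 5 = at least 90%; 4 = 70 to 90%; 3 = 50 to 70%; 2 = 30 to 50%; 1 = 10 to 30%; 0 = under 10%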
Outline: (§4)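 Herbicidal effect was scored against a graded standard 21 days after treatment. Seeds were sown in puddled, leveled paddy soil flooded to 3 cm depth, and the active ingredient was applied at 100 g per 10 ares before greenhouse culture.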

monochoria (Mo) = assay: as above; settings: 100 g of the active ingredient per 10 ares, 21st day after the application, index 0-5 of Table 47;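 also: grade of growth control; 5 = at least 90%; 4 = 70 to 90%; 3 = 50 to 70%; 2 = 30 to 50%; 1 = 10 to 30%; 0 = under 10%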
Outline: as §4

bulrush (Sc) = assay: as above; settings: 100 g of the active ingredient per 10 ares, 21st day after the application, index 0-5 of Table 47;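 also: grade of growth control; 5 = at least 90%; 4 = 70 to 90%; 3 = 50 to 70%; 2 = 30 to 50%; 1 = 10 to 30%; 0 = under 10%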
Outline: as §4

Cn1c(C(F)(F)F)ccc(-c2cc3c(cc2F)OCC(=O)N3)c1=O [Compound No. 2-4, 3-(7-fluoro-2,3-dihydro-1,4-benzoxazin-3-on-6-yl)-1-methyl-6-trifluoromethyl-2(1H)-pyridone]
Phytotoxicity Tr (wheat (Tr)): 0
Herbicidal effects Ec (barnyardgrass (Ec) [1]): 5
Herbicidal effects Ci (rice flatsedge (Ci) [2]): 5
Herbicidal effects Po (pale smartweed (Po) [3]): 5
Herbicidal effects Am (slender amaranth (Am) [4]): 5
Herbicidal effects Ch [5]: 5
Herbicidal effects Di (Diaitaria ciliaris (Di) [6]): 5
Herbicidal effects Di (Digitaria ciliaris (Di)): 5
Herbicidal effects Ec (barnyardgrass (Ec) [7]): 5
Herbicidal effects Ci (rice flatsedge (Ci) [8]): 5
Herbicidal effects Po (pale smartweed (Po) [9]): 5
Herbicidal effects Am (slender amaranth (Am) [10]): 5
Herbicidal effects Ch [11]: 5
Herbicidal effects Se (green foxtail (Se)): 5
Herbicidal effects Ab (China jute (Ab)): 3
Herbicidal effects Po (pale smartweed (Po) [12]): 5
Herbicidal effects Am (slender amaranth (Am) [13]): 5
Herbicidal effects Ch [14]: 4
Herbicidal effects Di (Diaitaria ciliaris (Di) [15]): 5
Herbicidal effects Ec (barnyardgrass (Ec) [16]): 5
Herbicidal effects Mo (monochoria (Mo)): 5
Herbicidal effects Sc (bulrush (Sc)): 5
